Data on ten compounds can be found in patent US6583132B1, “Oxidant scavengers” (Duke University, priority 1993, dated 2003).

The mortality is the percentage killed. The low end stands for more survivors, the high end for fewer survivors.

The test system of one test is rat cortical cells. As to the kind of experiment: Neurotoxicity (LDH release) in cortical cell culture. Format: cell-based. Particulars: for NMDA-induced LDH release: 1 mM NOS inhibitor. As for the experimental part:
(§1) Tissue culture: Mixed neuronal and glial cultures were prepared from embryonic day-18 rat cerebral cortices (Sprague-Dawley, Zivic Miller). Briefly, the cerebral cortices were dissected and enzymatically dissociated by incubation in Ca^++-, Mg^++-free Hank's balanced salt solution (HBSS) supplemented with 10 mM HEPES and 0.25% trypsin for 20 min. at 37° C. The tissue was rinsed and dispersed into single cell suspension by gentle passage through a fire polished Pasteur pipette. The cell suspension was centrifuged and resuspended in Minimum Essential Media (MEM), containing Earle's salts supplemented with 3 g/L glucose, 5% horse serum and 5% fetal bovine serum (growth media). The cells were plated in poly-D-lysine-coated multi-well plates: 12-well plates for aconitase measurement, and 24 well plates for toxicity experiments. Cells were maintained at 37° C. in a humidified incubator with 5% CO2/95% air in growth media. Media was not replaced so as to reduce glial overgrowth and neuronal loss. Mature cells (14-17 days in vitro) were used for all experiments.
(§2) Cell treatment: The growth media was replaced with MEM supplemented with 25 mM glucose (MEM-g). For both neurotoxicity studies and aconitase measurement, cells were incubated in the designated treatment for the indicated length of time at 37° C. Unless otherwise specified, antagonists or SOD-mimetics were added 15 min. prior to agonists. For measurement of neurotoxicity, cells were incubated with treatments for 18 hr at 37° C. in MEM-g. To access the ability of antagonists to inhibit acute NMDA toxicity or rescue cells from an ongoing NMDA insult, an alternate paradigm of NMDA treatment was used in addition to the one describe above. In this paradigm, growth media was replaced with HBSS^+ (Ca^++-, Mg^++-free Hank's Balanced Salt Solution supplemented with 2 mM CaCl2, 1 mM NaHCO3, 10 mM HEPES and 5 μM glycine), cells were treated with vehicle or 100 μM NMDA for 15 min. after which HBSS^+ was replaced with MEM-g and cells were returned to the incubator for 18 additional hrs. Antagonsists or SOD-mimetics were added to the cells 15 min. before NMDA exposure or 15, 30 or 60 min. following final media replacement. For determination of Ca^++-dependence, cells were incubated in HBSS^+ with no added Ca^++. When kainate (KA) was used as an agonist, 100 μM D-APV was routinely included to block secondary NMDA receptor activation. Catalase (100 U/ml) was always included when xanthine plus xanthine oxidase (X+XO) was used as a treatment to rule out the contribution of hydrogen peroxide.
Neurotoxicity studies: Neurotoxicity was determined by the measurement of LDH released in the supernatant media as previously described (Patel et al, Toxicol. Appl. Pharmacol. 115:124 (1991) and Neurotoxicology 14:35 (1992)). LDH was measured by the method of Vassault, Lactate dehydrogenase. In: Methods of Enzymatic Analysis, Bergmeyer HU (ed), Verlag Chemie, Weinheim, pp. 118-126 (1983). Additionally, cell death was confirmed with ethidium-1 homodimer (EthD-1). Briefly, the cells were washed with HBSS, loaded with 20 μM EthD-1 for 30 min,. rinsed and viewed through fluorescence optics. The number of dead cells labeled with EthD-1 were counted in 4-6 randomly selected fields, the numbers averaged to give an estimate of cell death and the experiment was repeated 3 times.
(In general: LDH leaks from cells whose membrane has failed.)

The nature of the next test: Cold-induced brain edema. Particulars: for Edema Index: mean ± standard error; for less edema formation compared to saline treated controls: pretreatment i.p. It counts as in vivo, mice. As to the method:
Injury model: Young (6-7 week) mice (see Example I) were anesthetized with 60 mg/kg pentobarbital (Nembutal, Abbott Laboratories, Chicago, Ill.). An incision was then made in the scalp and a steel rod 20 cm long, 3 mm in diameter, equilibrated in liquid nitrogen with an 8 cm bath of liquid nitrogen 4 cm from the end of the rod, was placed on the skull over the right cerebral hemisphere for 30 seconds. The skin incision was then sutured.
Two hours after the injury the mouse was given an additional dose of pentobarbital. The chest cavity was opened, the lungs were excised, and the mouse was then perfused with 20 ml saline through the left ventricle of the heart. The brain was then removed and the cerebellum was excised. The right (R) and left (L) cerebral hemispheres were separated and immediately weighed (wet weight, W). Each hemisphere was then dried at 70° C. for 2-3 days in a hot air oven until a constant weight was achieved (dry weight, D). An index of edema (I) was then calculated as shown in equation 13.
I=(W/D R−W/DL)/(W/DL)×100 [13]
Chemical treatments: Six groups of experiments were conducted to investigate the importance of extracellular superoxide, iron, and nitric oxide in cold-induced brain edema. In all groups, drugs were dissolved in saline and injected at 0.008 cc/g 15 minutes prior to cold injury. In Group 1, edema formation of EC-SOD transgenic mice was compared with that of nontransgenic littermates. Group 2 compared edema formation between wild-type (C57BL/6×C3H)F1 mice treated with saline and (C57BL/6×C3H)F1 mice treated with 0.33 mg/g deferoxamine (0.51 μmoles/g). Group 3 compared (C57BL/6×C3H)F1 mice treated with saline to (C57BL/6×C3H)F1 mice treated with 0.51 μmoles/g Fe^3÷− saturated deferoxamine. Group 4 consisted of (C57BL/6×C3H)F1 mice treated with saline and (C57BL/6×C3H)F1 mice treated with 0.02 mg/g N-ω-nitro-L-arginine methyl ester. Group 5 consisted of (C57BL/6×C3H)F1 mice treated with saline and (C75BL/6×C3H)F1 mice treated with 0.02 mg/g N-ω-nitro-L-arginine methyl ester plus 0.05 mg/g L-arginine. Group 6 compared edema formation between nontransgenic mice, EC-SOD transgenic mice treated with saline, and EC-SOD transgenic mice treated with 0.02 mg/g N-ω-nitro-L-arginine methyl ester.
Iron saturated deferoxamine was made by dissolving equimolar amounts of deferoxamine and then ferric chloride in saline. Saturation of deferoxamine with ferric iron was determined spectrophotometrically be measuring the absorbance at 425 nm (ε=2500 M^−1 cm^−1 for Fe3+-deferoxamine) (Monzyk and Crumbliss, J. Amer. Chem. Soc. 104:4921 (1982)).

In the next test the test system is aconitase. Put plainly: Aconitase activity in cortical cell lysates. It counts as cell-based, rat. Particulars: for decrease in aconitase activity: PQ^++ 3 hrs, NMDA 1 hr, KA 6 hrs; for NMDA-induced aconitase inactivation: 1 mM NOS inhibitor. As to the method:
as §1, §2
Aconitase measurement: For the measurement of aconitase, following treatment with agents, media was removed and cells lysed in ice-cold 50 mM, Tris/HCl, pH 7.4 containing 0.6 mM MnCl2, 1 mM L-cysteine, 1 mM citrate and 0.5% Triton-X 100. The aconitase activity of cell lysates was measured spectrophotometrically by monitoring the formation of cis-aconitate from isocitrate at 240 nm in 50 mM Tris/HCl, pH 7.4, containing 0.6 mM MnCl2 and 20 mM isocitrate at 25° C. (Kreb and Holzach, Biochem. J. 52:527 (1952); Gardner and Fridovich, J. Biol. Chem. 267:8757 (1992)). […] Aconitase activity in cortical cell lysates was inhibited by 0.1 mM potassium ferricyanide or by boiling of sample.

Test [1] in a line: CNS oxygen toxicity, 6 ATA hyperbaric oxygen exposure. It counts as in vivo, mice. Particulars: for Survival: 6 ATA oxygen 25 minutes, DDC 400 mg/kg i.p. or LNNA 20 mg/kg i.p. As for the experimental part:
Oxygen exposures: 7-8 week old mice were exposed to hyperbaric oxygen five at a time in a small-animal chamber (Bethlehem, Pa.). After flushing the chamber with pure oxygen, compression to 50 meters (6 ATA) was performed within 5 minutes. The oxygen concentration in the chamber was monitored continuously with a Servomex oxygen analyzer (model 572, Sybron, Norwood, Mass.) and maintained at ≳99%. The carbon dioxide concentration was analyzed from intermittent samples of chamber gas with an IR detector (IR Industries, Santa Barbara, Calif.) and was not allowed to rise above 0.1%. The chamber temperature was maintained at 25-26° C., but the compression of oxygen in the chamber raised the temperature to 30-32° C. transiently, but an environmental control system restored the normal chamber temperature within 3 minutes. […] The mice were observed continuously for signs of oxygen toxicity from the beginning of the exposure until 4 hours after removal from the chamber. The time to the first generalized convulsion (seizure latency) and the time to death were recorded. These exposure conditions are designed to cause CNS oxygen toxicity without appreciable evidence of pulmonary oxygen toxicity.
Treatment with diethyldithiocarbamate: One hour prior to exposure to 6 ATA oxygen, mice were given either i.p. injections of either 0.008 cc/g saline or 400 mg/kg diethyldithiocarbamate dissolves in normal saline (0.008 cc/g). The mice were then exposed to 6 ATA oxygen for 25 minutes as described above.
Treatment with β-mercaptoethanol: One hour prior to exposure to 6 ATA oxygen, mice were given either i.p. injections of 0.008 cc/g saline or 180 mg/kg β-mercaptoethanol (0.008 cc/g). This dose of β-mercaptoethanol was selected because it contains an equal number of reducing thiols as the dose of diethyldithiocarbamate. The mice were then exposed to 6 ATA oxygen for 30 minutes as described above.
Treatment with N-ω-nitro-L-arginine, an inhibitor of nitric oxide synthase: Ten minutes prior to beginning compression, 0.008 cc/g saline or 20 mg/kg (0.008 cc/g) N-ω-nitro-L-arginine dissolved in sterile water was given i.p to the transgenic and nontransgenic mice. Mice were then exposed at 6 ATA oxygen for 25 or 75 minutes as described above.

Consider `N[C@H](CCCP(=O)(O)O)C(=O)O` [D-APV, reference compound], for which the “LDH release” value in the test with rat cortical cells (condition "pre", 100 μM D-APV, 100 μM NMDA 15 min.) is reported as “complete blockade”.

On to `CC(=O)N(O)CCCCCNC(=O)CCC(=O)N(O)CCCCCNC(=O)CCC(=O)N(O)CCCCCN` [Deferoxamine, deferoxamine], for which the “Edema Index” value in the test “Cold-induced brain edema” (wild-type mice, 0.51 μmoles/g, 15 minutes prior to cold injury) worked out at 3.41 ± 0.49. Also, the “less edema formation compared to saline treated controls” value in the test “Cold-induced brain edema” (wild-type mice) turned out to be 43%.

Regarding `C=C(C)[C@H]1CN[C@H](C(=O)O)[C@H]1CC(=O)O` [KA, kainate], the “decrease in aconitase activity” value with aconitase is given as 42%.

On to `N=C(N)NCCC[C@H](N)C(=O)O` [L-arginine], for which the “effect of excess L-arginine on protection by N-ω-nitro-L-arginine” value in test [1] (20 mg/kg LNNA plus 50 mg/kg L-arginine, 6 ATA oxygen) is reported as “could be reversed”.

Take `COC(=O)[C@@H](N)CCCNC(=N)N[N+](=O)[O-]` [LNAME, N-ω-nitro-L-arginine methyl ester]: the “NMDA-induced LDH release” value with rat cortical cells is “unchanged”. Further, the “Edema Index” value in the test “Cold-induced brain edema” (EC-SOD transgenic mice, 20 mg/kg 15 minutes prior to cold-induced injury) is 4.30 ± 0.96; in “Cold-induced brain edema” (wild-type mice, 0.02 mg/g LNAME, with or without 0.05 mg/g L-arginine), 3.65 ± 0.51. Besides, in “Cold-induced brain edema” (wild-type mice), the “less edema formation compared to saline treated controls” value was determined as 37%. The NMDA-induced aconitase inactivation entry in the test on aconitase is “unchanged”.

For the compound `C[C@]12N[C@H](Cc3ccccc31)c1ccccc12` [MK801, reference compound], the “reduction of LDH release / protective effect” value with rat cortical cells (added 15 min. after 15 min. 100 μM NMDA, 200 μM MnTBAP, 10 μM MK801) is on record as 17%.

On to `NC(=NCCC[C@H](N)C(=O)O)N[N+](=O)[O-]` [N-ω-nitro-L-arginine], for which the “NMDA-induced LDH release” value in the test with rat cortical cells was “unchanged”. For the same compound, the NMDA-induced aconitase inactivation entry in the test on aconitase is listed as “unchanged”. In addition, the “difference in sensitivity between transgenic and nontransgenic mice” value in test [1] (20 mg/kg i.p., 6 ATA oxygen 75 minutes) is given as “abolished the difference in sensitivity”. For the same compound, the Survival in test [1] (nontransgenic mice) and in test [1] (transgenic mice) was 100% each time. In addition, the “seizure latency” value is “significantly delayed” in test [1] (transgenic and nontransgenic mice, 20 mg/kg i.p., 6 ATA oxygen); 13.50 ± 5.6 min in test [1] (wild-type mice, 20 mg/kg i.p., 6 ATA oxygen). Also, the mortality in test [1] (wild-type mice, 20 mg/kg i.p., 90 minutes of 6 ATA oxygen) worked out at 50%; in test [1] (wild-type mice, 20 mg/kg i.p., 2 hours of 6 ATA oxygen) it was 100%.

As to `CN[C@H](CC(=O)O)C(=O)O` [NMDA, N-methyl-D-aspartate], the “decrease in aconitase activity” value in the test with aconitase came to 40%.

As for `C[n+]1ccc(-c2cc[n+](C)cc2)cc1` [PQ^++, methylviologen (paraquat)], the “decrease in aconitase activity” value in the test with aconitase is 70%.

Take `OCCS` [β-mercaptoethanol]: the “protection against CNS oxygen toxicity” value in test [1] (180 mg/kg i.p., 6 ATA oxygen 30 minutes) is “did not protect against CNS oxygen toxicity”.
